Data published in US8609669B2, “Potassium channel modulators” (AbbVie Inc., priority 2010, dated 2013).

Target: T1, KCNQ 2/3 channels (HEK293 cells stably expressing human KCNQ2 and KCNQ3 subunits) (Homo sapiens, UniProt O43525+O43526)
T1 construct: expressed in transfected cells; host or cells: HEK293
Experiment: KCNQ2/3 channel activation, thallium flux FLIPR assay (BTC-AM dye)
Type: cell-based
Settings: for Emax: HEK293, maximum response relative to response of retigabine at 10 μM (set at 100%), read-out: Max. %; for EC50: HEK293 cells expressing human KCNQ2 and KCNQ3, FLIPR thallium flux
Description: The following example describes the assay that can be used to identify compounds that activate KCNQ 2/3 channels.
HEK293 cells stably expressing human KCNQ2 and KCNQ3 subunits were seeded in 96-well, black-walled, clear-bottomed, poly-D-lysine coated plates (BD Biosciences, Bedford, Mass.) at a density of 1×10^5 cells per well 24 hours before the assay. On the assay day, BTC-AM dye (Invitrogen, Carlsbad, Calif.) was loaded into the cells by replacing the cell culture medium with 100 μL/well of 4 μM dye in DPBS. Dye loading was allowed to proceed for 2 hours at room temperature and then cells were washed twice in 100 μL/well of assay buffer (in mM: 10 HEPES pH 7.3, 5 glucose, 140 Na-gluconate, 2.5 K-gluconate, 3.6 Ca-gluconate, 2 MgSO4, 0.1 Ouabain) to remove unloaded dye. Cells were incubated in 50 μL of assay buffer before loading onto a FLIPR system (Molecular Devices, Sunnyvale, Calif.). Various concentrations of compounds to be assayed were added to the cells in 50 μL of assay buffer and incubated for 4 minutes. The fluorescence signal was initiated by adding 100 μL of assay buffer containing 6 mM TlNO3 and 10 mM K2SO4. Fluors were excited using the 488-nm line of an argon laser and emission was filtered using a 540±30 nm bandpass filter. Fluorescent signals were recorded for 3 minutes. Responses over baseline values were plotted versus concentrations of test compounds to obtain an EC50 value. The maximum response for each test compound was determined relative to the response produced at 10 μM by retigabine. The maximum response of retigabine at 10 μM was set at 100%.

SMILES | Emax [%] | EC50 [µM]
CC(C)(C)Cc1c(NC(=O)CCc2ccccc2)nn2cccnc12 [Example 10, N-[3-(2,2-dimethylpropyl)pyrazolo[1,5-a]pyrimidin-2-yl]-3-phenylpropanamide] | 156 | 1 to 10
CC(C)(C)c1c(NC(=O)CC2(C)CCc3ccccc32)nn2cccnc12 (racemic) [Example 131, (±)-N-(3-tert-butylpyrazolo[1,5-a]pyrimidin-2-yl)-2-(1-methyl-2,3-dihydro-1H-inden-1-yl)acetamide] | 97 | 1 to 10
CC1(C)[C@H]2CC[C@@H](CC(=O)Nc3nn4cccnc4c3-c3ccc(OC(F)(F)F)cc3)[C@@H]1C2 [Example 4, 2-[(1S,2S,5S)-6,6-dimethylbicyclo[3.1.1]hept-2-yl]-N-{3-[4-(trifluoromethoxy)phenyl]pyrazolo[1,5-a]pyrimidin-2-yl}acetamide] | 73 | 0.5 to 1
Cc1cnc2c(-c3ccc(F)c(C)c3)c(NC(=O)C[S+]([O-])C3CCCC3)nn2c1 (stereo not shown) [Example 173, 2-(cyclopentylsulfinyl)-N-[3-(4-fluoro-3-methylphenyl)-6-methylpyrazolo[1,5-a]pyrimidin-2-yl]acetamide] | 21 | > 10
Cc1ccc(/C=C/c2c(NC(=O)CC(C)(C)C)nn3cccnc23)cn1 [Example 115, 3,3-dimethyl-N-{3-[(E)-2-(6-methylpyridin-3-yl)vinyl]pyrazolo[1,5-a]pyrimidin-2-yl}butanamide] | 10 | > 10
COc1cccc(CC(=O)Nc2nn3cc(C)cnc3c2-c2ccc(F)cc2)c1 [Example 26, N-[3-(4-fluorophenyl)-6-methylpyrazolo[1,5-a]pyrimidin-2-yl]-2-(3-methoxyphenyl)acetamide] | 154 | 0.5 to 1
Cc1cc(C)n2nc(NC(=O)CCC3CCCC3)c(-c3ccc(C(F)(F)F)cc3)c2n1 [Example 61, 3-cyclopentyl-N-{5,7-dimethyl-3-[4-(trifluoromethyl)phenyl]pyrazolo[1,5-a]pyrimidin-2-yl}propanamide] | 152 | 0.1 to 0.5
CC(C)(C)c1c(NC(=O)CCc2ccc(C(F)(F)F)cc2)nn2cccnc12 [Example 165, N-(3-tert-butylpyrazolo[1,5-a]pyrimidin-2-yl)-3-[4-(trifluoromethyl)phenyl]propanamide] | 178 | 0.1 to 0.5
Cc1cc(C)n2nc(NC(=O)CC3CCCCC3)c(-c3ccccc3)c2n1 [Example 94, 2-cyclohexyl-N-(5,7-dimethyl-3-phenylpyrazolo[1,5-a]pyrimidin-2-yl)acetamide] | 155 | < 0.1

Other lines, results leading:

Emax [%] | EC50 [µM] | SMILES
177 | 1 to 10 | CC(C)(C)c1c(NC(=O)CC2CCC3CC23)nn2cccnc12 (stereo not drawn) [Example 175, 2-[(cis)-bicyclo[3.1.0]hex-2-yl]-N-(3-tert-butylpyrazolo[1,5-a]pyrimidin-2-yl)acetamide]
132 | 0.1 to 0.5 | Cc1cnc2c(-c3cccc(F)c3)c(NC(=O)Cc3ccc(F)cc3)nn2c1 [Example 84, 2-(4-fluorophenyl)-N-[3-(3-fluorophenyl)-6-methylpyrazolo[1,5-a]pyrimidin-2-yl]acetamide]
141 | 1 to 10 | CC(C)(C)CC(=O)Nc1nn2cccnc2c1-c1cccc(OC(F)(F)F)c1 [Example 22, 3,3-dimethyl-N-{3-[3-(trifluoromethoxy)phenyl]pyrazolo[1,5-a]pyrimidin-2-yl}butanamide]
247 | 0.1 to 0.5 | Cc1cnc2c(-c3ccc(C)c(Cl)c3)c(NC(=O)Cc3ccc(F)cc3)nn2c1 [Example 72, N-[3-(3-chloro-4-methylphenyl)-6-methylpyrazolo[1,5-a]pyrimidin-2-yl]-2-(4-fluorophenyl)acetamide]
7 | > 10 | COc1ncc(-c2c(NC(=O)Cc3ccc(F)cc3)nn3cccnc23)cn1 [Example 181, 2-(4-fluorophenyl)-N-[3-(2-methoxypyrimidin-5-yl)pyrazolo[1,5-a]pyrimidin-2-yl]acetamide]
